From paper PMC10574767, “Extractives from Artemisia afra with Anti-Bacterial and Anti-Fungal Properties” (Plants, 2023)
Converted amounts (≈) assume the structure as drawn. Read-outs that look alike come from different tables or passages of the source.

Assays:
[1] = tested on: intra-erythrocytic and gametocyte asexual P. falciparum parasites; parameters: method as in PMID 30849984; conditions: intra-erythrocytic and gametocyte stages; cited from earlier work
COX-1 = tested on: COX-1; parameters: method as in doi:10.3329/bjp.v8i2.14167; conditions: cited from earlier work
COX-2 = tested on: COX-2; parameters: method as in doi:10.3329/bjp.v8i2.14167; conditions: cited from earlier work
[2] = tested on: Candida albicans ATCC 10231; assay: Serial dilution microplate MIC (fungi); format: cell-based; conditions: for MIC: Candida albicans; for Selectivity index C. albicans: in brackets, Vero LC50 vs MIC
Protocol: (§1) The MIC value of the plant extracts and isolated compounds against one fungal and five bacterial strains (Salmonella Typhimurium ATCC 39183, Escherichia coli ATCC 25922, Pseudomonas aeruginosa ATCC 27853, Staphylococcus aureus ATCC 29213, Enterococcus faecalis ATCC 29212, and fungi culture, Candida albicans ATCC 10231) was assessed in triplicate using the serial dilution microplate method; acetone and DMSO were used as solvents. Bacterial cultures were grown in Mueller Hinton broth (Sigma Aldrich, St. Louis, MO, USA) overnight and adjusted to McFarland standard 1 (1 × 10^8 CFU/mL). Then, 100 µL of samples were transferred into the first well of a sterile 96-well microtiter plate, which contained 100 µL of water and a 1:1 serial dilution with sterilized distilled water was carried out. In each well, 100 µL of appropriately adjusted fungal or bacterial cultures were added, and the bacteria were subjected to final concentrations of 250–3.9 μg/mL for pure compounds and 2.5–0.02 mg/mL for crude extracts. Amphotericin-B and Gentamicin (Virbac, Carros, France) served as positive controls for fungi and bacteria, respectively. For sterility, water served as control, while acetone served as a negative control. The microplates were then incubated for 24 h at 37 °C. Following incubation, 40 µL of 0.2 mg/mL p-iodonitrotetrazolium violet (INT, Sigma Aldrich) dissolved in water (hot) was added to the wells before being incubated at 37 °C for another 2 h. In the case of fungi, the INT was added before incubation. The MIC was measured visually as the lowest concentration of the compounds/extracts that inhibited proliferation.

[3] = tested on: Botrytis cinerea and Sclerotinia sclerotiorum; parameters: method as in PMID 37570772; conditions: cited from earlier work
Plasmodium falciparum = tested on: Plasmodium falciparum; parameters: method as in PMID 32664596; conditions: cited from earlier work
in vitro = assay: in vitro
Protocol: Cytotoxicity of compounds and extracts was tested against mammalian cells using the MTT assay. MCF-7 cancer cells were grown in a 5% CO2 incubator in Dulbecco’s Modified Eagle’s Medium (DMEM, Highveld Biological, Johannesburg, South Africa) supplemented with 10% fetal calf serum (Adcock-Ingram, Johannesburg, South Africa) and 1% penicillin-streptomycin (10,000 U/mL and 10 mg/mL streptomycin, Sigma Aldrich). In a 5% CO2 incubator, Vero cells were grown in a minimal essential medium (MEM, Highveld Biological, South Africa) supplemented with 5% fetal calf serum (Adcock-Ingram) and 0.1% gentamicin (Virbac). Cell suspensions were obtained from 70–80% confluent monolayer cultures and were plated in 96-well cell culture plates at a density of 1 × 10^4. Plates were incubated in a 5% CO2 incubator for 24 h at 37 °C. The cells were exposed to the extracts or compounds dissolved in the media at different concentrations for 48 h. Positive and negative controls were doxorubicin (Pfizer, New York, NYC, USA) and acetone or DMSO, respectively. After that, the wells were rinsed with phosphate-buffered saline (PBS, Sigma) and 200 µL of fresh medium was poured into the wells. Thirty microlitres (5 mg/mL) of MTT (Sigma) dissolved in PBS was added to each well, and the plates were incubated at 37 °C for 4 h. The medium from the wells was removed, rinsed, and 50 µL of 100% DMSO was added to the wells. At a wavelength of 570 nm, absorbance was measured using a microplate reader (BioTek Synergy, Beijing, China). Each sample concentration was tested in quadruplicate in two repeats (n = 8), and the concentration causing 50% inhibition of cell viability (LC50) was calculated. Selectivity index (SI) values for the extracts/compounds were obtained by dividing cytotoxicity LC50 values of normal (Vero) cells by those of the cancer cells.

[4] = tested on: Leishmania braziliensis amastigotes; parameters: method as in PMID 32664596; conditions: cited from earlier work
Caco-2 tumor cells = tested on: Caco-2 tumor cells; parameters: method as in PMID 27357542; conditions: 5 μg/mL; cited from earlier work
MCF-7 tumor cells = tested on: MCF-7 tumor cells; parameters: method as in PMID 27357542; conditions: 1 µg/mL; cited from earlier work
[5] = tested on: Enterococcus faecalis ATCC 29212; assay: Serial dilution microplate MIC; format: cell-based; conditions: for MIC: Enterococcus faecalis; for Selectivity index E. faecalis: in brackets, Vero LC50 vs MIC
Protocol: as §1

[6] = tested on: Salmonella Typhimurium ATCC 39183; assay: Serial dilution microplate MIC; format: cell-based; conditions: for MIC: Salmonella enterica, read-out: Minimum inhibitory concentration (MIC) S. Typhimurium; for Selectivity index S. Typhimurium: in brackets, Vero LC50 vs MIC
Protocol: as §1

[7] = tested on: Staphylococcus aureus ATCC 29213; assay: Serial dilution microplate MIC; format: cell-based; conditions: for MIC: Staphylococcus aureus; for Selectivity index S. aureus: in brackets, Vero LC50 vs MIC
Protocol: as §1

[8] = tested on: Escherichia coli ATCC 25922; assay: Serial dilution microplate MIC; format: cell-based; conditions: for MIC: Escherichia coli; for Selectivity index E. coli: in brackets, Vero LC50 vs MIC
Protocol: as §1

[9] = tested on: Pseudomonas aeruginosa ATCC 27853; assay: Serial dilution microplate MIC; format: cell-based; conditions: for MIC: Pseudomonas aeruginosa; for Selectivity index P. aeruginosa: in brackets, Vero LC50 vs MIC
Protocol: as §1

HEK295 = tested on: HEK295; parameters: method as in PMID 27357542; conditions: cited from earlier work
S. aureus = tested on: S. aureus; parameters: method as in PMID 23480526; conditions: cited from earlier work
P. aeruginosa = tested on: P. aeruginosa; parameters: method as in PMID 23480526; conditions: cited from earlier work
E. coli = tested on: E. coli; parameters: method as in PMID 23480526; conditions: cited from earlier work
[10] = tested on: one fungal and five bacterial strains; assay: Serial dilution microplate MIC, whole panel; format: cell-based; conditions: isolated compounds, highest concentration 250 µg/mL
Protocol: as §1

L. monocytogenes = tested on: L. monocytogenes; parameters: method as in PMID 23480526; conditions: cited from earlier work
[11] = parameters: method as in PMID 22693528; conditions: cited from earlier work
[12] = ATCC10231, isolated compounds, Table 2, read-out: Minimum inhibitory concentration (MIC) C. albicans
[13] = ATCC29212, isolated compounds, Table 2, read-out: Minimum inhibitory concentration (MIC) E. faecalis
[14] = ATCC29213, isolated compounds, Table 2, read-out: Minimum inhibitory concentration (MIC) S. aureus
[15] = ATCC25922, isolated compounds, Table 2, read-out: Minimum inhibitory concentration (MIC) E. coli
[16] = ATCC27853, isolated compounds, Table 2, read-out: Minimum inhibitory concentration (MIC) P. aeruginosa

## C=C1C(=O)O[C@H]2C1[C@@H](OC(C)=O)CC(=C)[C@]1(O)C=C[C@@](C)(O)[C@H]21 (stereo partly drawn) [1α, 4α-dihydroxybishopsolicepolide]
[1]
  IC50: ~10 µM

## CC(=O)O[C@H]1CC[C@]2(C)[C@H]3CC[C@]4(C)C(=CC[C@@]5(C)CCC(C)(C)C[C@H]54)[C@]3(C)CC[C@H]2C1(C)C [3β-Taraxerol acetate, 3β-taraxerol acetate]
COX-1
  IC50: 116 µM
COX-2
  IC50: 94.7 µM

## C[C@@H]1[C@H](O)[C@@H](C)/C=C/C=C/C=C/C=C/C=C/C=C/C=C/[C@H](O[C@@H]2O[C@H](C)[C@@H](O)[C@H](N)[C@@H]2O)C[C@@H]2O[C@](O)(C[C@@H](O)C[C@@H](O)[C@H](O)CC[C@@H](O)C[C@@H](O)CC(=O)O[C@H]1C)C[C@H](O)[C@H]2C(=O)O [Amphotericin-B, reference compound]
[2]; ATCC10231, crude extracts, Table 1, read-out: Minimum inhibitory concentration (MIC) C. albicans
  MIC: 20 µg/mL (≈ 21.6 µM)
[2]; [12]
  MIC: 3.9 µg/mL (≈ 4.22 µM)

## CCCCCCCCCCCCOC(=O)/C=C/c1ccc(O)cc1 [Dodecyl-p-coumarate, dodecyl-p-coumarate]
[3]
  Mycelium growth of Botrytis cinerea and Sclerotinia sclerotiorum: inhibition of mycelium growth
Plasmodium falciparum
  EC50 Plasmodium falciparum: 81.19 ± 8.54 µg/mL (≈ 244 µM)
In vitro
  CC50 at 48 h: > 200 µg/mL
[2]; ATCC10231, read-out: Minimum inhibitory concentration (MIC) C. albicans
  MIC: 250 µg/mL (≈ 752 µM)
[2]; Table 2
  Selectivity index C. albicans: > 0.8
[4]
  EC50 Leishmania braziliensis amastigotes: 16.34 ± 0.49 µg/mL (≈ 49.1 µM)
Caco-2 tumor cells
  Reduction of viability of Caco-2 tumor cells: ≥ 15%
MCF-7 tumor cells
  Reduction of viability of MCF-7 tumor cells: at least 23%
[5]; ATCC29212, read-out: Minimum inhibitory concentration (MIC) E. faecalis
  MIC: 62.5 µg/mL (≈ 188 µM)
[5]; Table 2
  Selectivity index E. faecalis: > 3.2
[6]; isolated compounds, Table 2
  MIC: > 250 µg/mL
[6]; Table 2
  Selectivity index S. Typhimurium: < 0.8
[7]; ATCC29213, read-out: Minimum inhibitory concentration (MIC) S. aureus
  MIC: > 250 µg/mL
[7]; Table 2
  Selectivity index S. aureus: < 0.8
[8]; ATCC25922, read-out: Minimum inhibitory concentration (MIC) E. coli
  MIC: > 250 µg/mL
[8]; Table 2
  Selectivity index E. coli: < 0.8
[9]; ATCC27853, read-out: Minimum inhibitory concentration (MIC) P. aeruginosa
  MIC: > 250 µg/mL
[9]; Table 2
  Selectivity index P. aeruginosa: < 0.8
HEK295
  Toxic effect on HEK295: minimal toxic effect

## COc1cc(/C=C/C(=O)O)ccc1O [Ferulic acid, ferulic acid]
S. aureus
  MIC S. aureus: 1100 µg/mL (≈ 5660 µM)
In vitro
  CC50 at 48 h: > 200 µg/mL
[2]; [12]
  MIC: 250 µg/mL (≈ 1290 µM)
[2]; Table 2
  Selectivity index C. albicans: > 0.8
P. aeruginosa
  MIC P. aeruginosa: 100 µg/mL (≈ 515 µM)
E. coli
  MIC E. coli: 100 µg/mL (≈ 515 µM)
[10]; all tested strains, read-out: MIC against all tested microorganisms
  MIC: ≥ 250 µg/mL
[10]
  MIC against all tested microorganisms: no efficacy
[5]; [13]
  MIC: > 250 µg/mL
[5]; Table 2
  Selectivity index E. faecalis: < 0.8
[6]; isolated compounds, Table 2
  MIC: > 250 µg/mL
[6]; Table 2
  Selectivity index S. Typhimurium: < 0.8
[7]; [14]
  MIC: 250 µg/mL (≈ 1290 µM)
[7]; Table 2
  Selectivity index S. aureus: > 0.8
[8]; [15]
  MIC: > 250 µg/mL
[8]; Table 2
  Selectivity index E. coli: < 0.8
[9]; [16]
  MIC: > 250 µg/mL
[9]; Table 2
  Selectivity index P. aeruginosa: < 0.8
L. monocytogenes
  MIC L. monocytogenes: 1250 µg/mL (≈ 6440 µM)

## CNC(C)C1CCC(N)C(OC2C(N)CC(N)C(OC3OCC(C)(O)C(NC)C3O)C2O)O1 (stereo not shown) [Gentamicin, reference compound]
[5]; ATCC29212, crude extracts, Table 1, read-out: Minimum inhibitory concentration (MIC) E. faecalis
  MIC: 20 µg/mL (≈ 41.9 µM)
[5]; [13]
  MIC: 3.9 µg/mL (≈ 8.17 µM)
[6]; crude extracts, Table 1
  MIC: 20 µg/mL (≈ 41.9 µM)
[6]; isolated compounds, Table 2
  MIC: 3.9 µg/mL (≈ 8.17 µM)
[7]; ATCC29213, crude extracts, Table 1, read-out: Minimum inhibitory concentration (MIC) S. aureus
  MIC: 20 µg/mL (≈ 41.9 µM)
[7]; [14]
  MIC: 3.9 µg/mL (≈ 8.17 µM)
[8]; ATCC25922, crude extracts, Table 1, read-out: Minimum inhibitory concentration (MIC) E. coli
  MIC: 20 µg/mL (≈ 41.9 µM)
[8]; [15]
  MIC: 3.9 µg/mL (≈ 8.17 µM)
[9]; ATCC27853, crude extracts, Table 1, read-out: Minimum inhibitory concentration (MIC) P. aeruginosa
  MIC: 20 µg/mL (≈ 41.9 µM)
[9]; [16]
  MIC: 3.9 µg/mL (≈ 8.17 µM)

## C=C1C(=O)O[C@H]2[C@H]1[C@@H](OC(C)=O)C[C@@](C)(O)[C@@]13O[C@@H]1[C@@H]1O[C@]1(C)[C@H]23 [Yomogiartemin]
[1]
  IC50: ~10 µM

## O=C1O[C@H]([C@@H](O)CO)C(O)=C1O [vitamin C, reference compound]
[11]
  IC50 DPPH radical: 1.22 µg/mL (≈ 6.93 µM)
